Laboratory results taken from the supplement of paper PMC12819154, “High-throughput peptide-centric local stability assay extends protein–ligand identification to membrane proteins, tissues and bacteria” (Nature Structural & Molecular Biology, 2025).

Columns and labels:
Test in all cases: pEC50 of peptide local stability change
[1] = biological target: UniProt P00959; conditions: peptide sequence: LKENGFIK; direction: stabilized; replicate design: treated separately
Procedure: (§1)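 Dose-response HT-PELSA: desalted E. coli lysate treated separately per replicate with ATP (10 uM to 10 mM, 7 doses) for 30 min at 25 C, then a 4 min trypsin pulse at 22 C. Peptide ratio vs control was fitted with a 4-parameter log-logistic model (R2 > 0.9 in at least 3 replicates, CV of pEC50 <= 0.25); value is the mean pEC50 across replicates for stabilized or destabilized peptides.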

[2] = biological target: UniProt P07821; conditions: peptide sequence: LVDSLSGGER; direction: stabilized; replicate design: treated separately
Procedure: as §1

[3] = biological target: UniProt P08200; conditions: peptide sequence: VAIKGPLTTPVGGGIR; direction: stabilized; replicate design: treated separately
Procedure: as §1

[4] = biological target: UniProt P0A8F8; conditions: peptide sequence: VLVTTLTKR; direction: stabilized; replicate design: treated separately
Procedure: as §1

[5] = biological target: UniProt P0AFW8; conditions: peptide sequence: KNVEYLVVEAAGETR; direction: stabilized; replicate design: treated separately
Procedure: as §1

[6] = biological target: UniProt P11454; conditions: peptide sequence: ALPLPELK; direction: stabilized; replicate design: treated separately
Chain of UniProt P11454 (P11454 whole entry): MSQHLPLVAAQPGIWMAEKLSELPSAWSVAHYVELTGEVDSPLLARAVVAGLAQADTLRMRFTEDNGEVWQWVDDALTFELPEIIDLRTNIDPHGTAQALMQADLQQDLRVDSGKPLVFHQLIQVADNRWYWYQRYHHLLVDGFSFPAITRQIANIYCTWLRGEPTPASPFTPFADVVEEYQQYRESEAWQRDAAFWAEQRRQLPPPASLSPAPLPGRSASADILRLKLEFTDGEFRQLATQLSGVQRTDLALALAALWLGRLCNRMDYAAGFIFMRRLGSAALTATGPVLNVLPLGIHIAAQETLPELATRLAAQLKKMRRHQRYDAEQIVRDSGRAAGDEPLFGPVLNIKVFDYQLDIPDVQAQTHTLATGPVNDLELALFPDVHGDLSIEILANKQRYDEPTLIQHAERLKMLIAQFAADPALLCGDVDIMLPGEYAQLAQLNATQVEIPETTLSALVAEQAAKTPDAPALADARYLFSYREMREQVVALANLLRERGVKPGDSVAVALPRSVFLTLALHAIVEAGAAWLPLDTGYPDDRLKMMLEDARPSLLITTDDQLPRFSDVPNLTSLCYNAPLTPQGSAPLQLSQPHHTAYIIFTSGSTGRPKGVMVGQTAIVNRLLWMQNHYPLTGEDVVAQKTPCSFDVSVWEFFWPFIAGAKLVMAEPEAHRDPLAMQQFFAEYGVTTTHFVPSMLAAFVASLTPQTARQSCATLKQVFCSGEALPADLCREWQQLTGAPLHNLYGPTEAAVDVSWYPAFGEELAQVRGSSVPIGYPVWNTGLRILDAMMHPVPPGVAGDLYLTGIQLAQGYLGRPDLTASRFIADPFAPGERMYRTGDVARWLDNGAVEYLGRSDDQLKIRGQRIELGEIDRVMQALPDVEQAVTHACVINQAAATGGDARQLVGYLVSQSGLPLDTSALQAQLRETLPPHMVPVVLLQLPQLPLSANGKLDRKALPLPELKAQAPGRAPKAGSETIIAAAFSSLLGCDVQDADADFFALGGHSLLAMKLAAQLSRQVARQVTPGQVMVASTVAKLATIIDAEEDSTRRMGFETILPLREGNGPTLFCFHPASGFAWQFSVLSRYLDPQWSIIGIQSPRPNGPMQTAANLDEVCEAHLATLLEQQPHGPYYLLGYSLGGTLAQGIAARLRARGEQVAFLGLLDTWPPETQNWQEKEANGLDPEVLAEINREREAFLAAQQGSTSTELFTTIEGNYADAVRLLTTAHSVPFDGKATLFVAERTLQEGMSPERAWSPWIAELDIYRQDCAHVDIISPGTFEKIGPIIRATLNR
Procedure: as §1

[7] = biological target: UniProt P11664; conditions: peptide sequence: GAPETFDVAK; direction: stabilized; replicate design: treated separately
Procedure: as §1

[8] = biological target: UniProt P15034; conditions: peptide sequence: RAGEITAMAHTR; direction: stabilized; replicate design: treated separately
Chain of UniProt P15034 (P15034 whole entry): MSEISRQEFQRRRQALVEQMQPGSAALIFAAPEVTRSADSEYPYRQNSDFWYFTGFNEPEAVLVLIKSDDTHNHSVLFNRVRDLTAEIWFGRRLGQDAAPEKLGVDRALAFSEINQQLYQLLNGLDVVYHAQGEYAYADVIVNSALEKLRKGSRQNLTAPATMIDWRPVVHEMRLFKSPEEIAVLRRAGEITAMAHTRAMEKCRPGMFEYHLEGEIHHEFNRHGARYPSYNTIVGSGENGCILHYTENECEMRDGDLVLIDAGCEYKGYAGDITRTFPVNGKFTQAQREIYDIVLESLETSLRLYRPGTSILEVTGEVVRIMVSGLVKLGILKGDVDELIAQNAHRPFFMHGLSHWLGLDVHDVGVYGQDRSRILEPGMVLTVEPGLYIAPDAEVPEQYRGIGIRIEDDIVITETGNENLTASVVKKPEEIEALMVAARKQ
Procedure: as §1

[9] = biological target: UniProt P17888; conditions: peptide sequence: QQQALAALR; direction: stabilized; replicate design: treated separately
Procedure: as §1

[10] = biological target: UniProt P18392; conditions: peptide sequence: EHIFEPFVR; direction: stabilized; replicate design: treated separately
Chain of UniProt P18392 (P18392 whole entry): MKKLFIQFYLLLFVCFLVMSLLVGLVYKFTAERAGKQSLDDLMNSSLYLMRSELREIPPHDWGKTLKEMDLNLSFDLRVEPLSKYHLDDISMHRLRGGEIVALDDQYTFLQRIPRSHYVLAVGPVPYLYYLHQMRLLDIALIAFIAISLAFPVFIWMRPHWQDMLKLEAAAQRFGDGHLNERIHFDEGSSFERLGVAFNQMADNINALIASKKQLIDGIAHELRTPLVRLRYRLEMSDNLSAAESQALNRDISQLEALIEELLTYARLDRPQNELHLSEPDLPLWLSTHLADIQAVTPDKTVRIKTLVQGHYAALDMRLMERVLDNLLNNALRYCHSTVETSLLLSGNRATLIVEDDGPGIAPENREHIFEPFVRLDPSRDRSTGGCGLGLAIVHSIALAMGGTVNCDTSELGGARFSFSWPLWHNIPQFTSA
Procedure: as §1

[11] = biological target: UniProt P21599; conditions: peptide sequence: VLEVQGMK; direction: stabilized; replicate design: treated separately
Procedure: as §1

[12] = biological target: UniProt P21693; conditions: peptide sequence: DSLQHAPHIIVATPGR; direction: stabilized; replicate design: treated separately
Chain of UniProt P21693 (P21693 whole entry): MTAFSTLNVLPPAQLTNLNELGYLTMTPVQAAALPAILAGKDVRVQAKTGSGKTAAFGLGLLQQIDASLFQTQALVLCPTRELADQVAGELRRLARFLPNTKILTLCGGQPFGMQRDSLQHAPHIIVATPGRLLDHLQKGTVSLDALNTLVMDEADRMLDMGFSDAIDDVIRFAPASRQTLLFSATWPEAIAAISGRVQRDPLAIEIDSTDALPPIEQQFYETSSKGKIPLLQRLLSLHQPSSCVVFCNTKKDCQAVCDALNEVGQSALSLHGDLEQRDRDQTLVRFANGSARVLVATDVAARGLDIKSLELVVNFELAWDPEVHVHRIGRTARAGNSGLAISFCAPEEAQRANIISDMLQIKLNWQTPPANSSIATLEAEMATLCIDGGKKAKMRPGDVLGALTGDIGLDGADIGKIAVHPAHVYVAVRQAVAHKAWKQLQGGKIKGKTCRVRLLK
Procedure: as §1

[13] = biological target: UniProt P23331; conditions: peptide sequence: AEHEQQAIHCVLVDECQFLTR; direction: stabilized; replicate design: treated separately
Chain of UniProt P23331 (P23331 whole entry): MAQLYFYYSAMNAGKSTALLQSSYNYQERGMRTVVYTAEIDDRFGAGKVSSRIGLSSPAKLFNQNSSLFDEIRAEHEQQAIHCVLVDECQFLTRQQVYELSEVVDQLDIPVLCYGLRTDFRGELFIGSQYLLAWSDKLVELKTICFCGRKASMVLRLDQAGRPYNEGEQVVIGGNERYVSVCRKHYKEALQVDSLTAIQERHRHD
Procedure: as §1

[14] = biological target: UniProt P23874; conditions: peptide sequence: ISVAGAQEK; direction: stabilized; replicate design: treated separately
Procedure: as §1

[15] = biological target: UniProt P24230; conditions: peptide sequence: LVQGDVGSGK; direction: stabilized; replicate design: treated separately
Chain of UniProt P24230 (P24230 whole entry): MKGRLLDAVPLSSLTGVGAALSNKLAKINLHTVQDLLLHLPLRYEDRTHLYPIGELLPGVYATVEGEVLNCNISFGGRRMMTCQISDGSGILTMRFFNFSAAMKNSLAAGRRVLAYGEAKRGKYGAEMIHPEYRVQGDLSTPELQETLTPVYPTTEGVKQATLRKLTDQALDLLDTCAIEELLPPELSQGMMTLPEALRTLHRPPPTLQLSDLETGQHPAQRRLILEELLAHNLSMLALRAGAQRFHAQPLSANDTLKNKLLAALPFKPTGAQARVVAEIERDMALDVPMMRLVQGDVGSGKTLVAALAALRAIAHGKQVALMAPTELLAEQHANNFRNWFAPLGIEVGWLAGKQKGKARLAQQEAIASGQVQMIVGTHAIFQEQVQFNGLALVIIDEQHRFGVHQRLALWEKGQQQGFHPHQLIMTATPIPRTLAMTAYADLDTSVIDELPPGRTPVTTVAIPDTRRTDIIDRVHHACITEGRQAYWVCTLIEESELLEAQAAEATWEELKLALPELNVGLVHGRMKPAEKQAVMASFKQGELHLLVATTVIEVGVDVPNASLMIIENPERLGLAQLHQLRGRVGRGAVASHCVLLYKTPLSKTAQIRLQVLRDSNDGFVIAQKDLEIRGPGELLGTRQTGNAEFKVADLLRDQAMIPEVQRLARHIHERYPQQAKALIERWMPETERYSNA
Procedure: as §1

[16] = biological target: UniProt P27278; conditions: peptide sequence: TVAILGGESSGK; direction: stabilized; replicate design: treated separately
Procedure: as §1

[17] = biological target: UniProt P27300; conditions: peptide sequence: SVDAVIVNGGVPR; direction: stabilized; replicate design: treated separately
Procedure: as §1

[18] = biological target: UniProt P27550; conditions: peptide sequence: NTSFAPGNVSIK; direction: stabilized; replicate design: treated separately
Procedure: as §1

[19] = biological target: UniProt P30015; conditions: peptide sequence: TGDTPAQER; direction: stabilized; replicate design: treated separately
Procedure: as §1

[20] = biological target: UniProt P36938; conditions: peptide sequence: TLVSSAMIDR; direction: stabilized; replicate design: treated separately
Chain of UniProt P36938 (P36938 whole entry): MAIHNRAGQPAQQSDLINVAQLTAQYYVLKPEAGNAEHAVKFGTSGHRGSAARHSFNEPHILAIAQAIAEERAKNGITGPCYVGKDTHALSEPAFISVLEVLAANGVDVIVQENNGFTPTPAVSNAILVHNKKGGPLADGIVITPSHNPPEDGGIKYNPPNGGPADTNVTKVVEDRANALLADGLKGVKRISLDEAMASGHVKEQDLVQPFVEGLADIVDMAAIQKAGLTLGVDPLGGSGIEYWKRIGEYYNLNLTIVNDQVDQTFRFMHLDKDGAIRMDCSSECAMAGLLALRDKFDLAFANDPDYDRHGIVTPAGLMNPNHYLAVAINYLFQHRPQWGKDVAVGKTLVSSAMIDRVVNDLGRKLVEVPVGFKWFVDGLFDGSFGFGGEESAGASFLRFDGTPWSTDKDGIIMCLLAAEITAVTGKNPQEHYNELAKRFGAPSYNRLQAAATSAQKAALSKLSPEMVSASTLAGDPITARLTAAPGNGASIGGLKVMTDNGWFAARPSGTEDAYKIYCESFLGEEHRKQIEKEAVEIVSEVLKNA
Procedure: as §1

[21] = biological target: UniProt P37617; conditions: peptide sequence: VTQVAFDKTGTLTVGKPR; direction: stabilized; replicate design: treated separately
Procedure: as §1

[22] = biological target: UniProt P37908; conditions: peptide sequence: QLSHSPHGR; direction: stabilized; replicate design: treated separately
Procedure: as §1

[23] = biological target: UniProt P39177; conditions: peptide sequence: NPSISTHLLGSNASSVIR; direction: stabilized; replicate design: treated separately
Chain of UniProt P39177 (P39177 whole entry): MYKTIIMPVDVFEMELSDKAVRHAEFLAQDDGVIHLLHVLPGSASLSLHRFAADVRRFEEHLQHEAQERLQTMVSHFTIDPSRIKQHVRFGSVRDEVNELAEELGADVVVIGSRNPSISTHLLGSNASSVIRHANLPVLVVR
Procedure: as §1

[24] = biological target: UniProt P39383; conditions: peptide sequence: QLVDFADK; direction: stabilized; replicate design: treated separately
Procedure: as §1

[25] = biological target: UniProt P43672; conditions: peptide sequence: LMLGQLQADSGR; direction: stabilized; replicate design: treated separately
Procedure: as §1

[26] = biological target: UniProt P75796; conditions: peptide sequence: IPEAQTILSR; direction: stabilized; replicate design: treated separately
Procedure: as §1

[27] = biological target: UniProt P75957; conditions: peptide sequence: KKPAEINSR; direction: stabilized; replicate design: treated separately
Procedure: as §1

[28] = biological target: UniProt P77485; conditions: peptide sequence: GTVAVTSDAR; direction: stabilized; replicate design: treated separately
Chain of UniProt P77485 (P77485 whole entry): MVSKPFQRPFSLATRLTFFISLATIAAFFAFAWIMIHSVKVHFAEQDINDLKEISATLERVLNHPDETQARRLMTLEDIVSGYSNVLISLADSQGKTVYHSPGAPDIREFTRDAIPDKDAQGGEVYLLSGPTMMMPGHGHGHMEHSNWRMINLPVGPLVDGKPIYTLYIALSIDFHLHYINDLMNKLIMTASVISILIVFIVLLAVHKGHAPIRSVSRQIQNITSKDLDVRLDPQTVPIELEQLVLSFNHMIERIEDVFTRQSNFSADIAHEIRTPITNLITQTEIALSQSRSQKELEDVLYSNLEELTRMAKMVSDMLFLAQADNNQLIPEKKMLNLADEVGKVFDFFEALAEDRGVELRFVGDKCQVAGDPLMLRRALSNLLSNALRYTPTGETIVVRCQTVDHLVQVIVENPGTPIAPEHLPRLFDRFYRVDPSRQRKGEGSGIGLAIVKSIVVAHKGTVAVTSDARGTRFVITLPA
Procedure: as §1

[29] = biological target: UniProt P77499; conditions: peptide sequence: GKDLLALSPEDR; direction: stabilized; replicate design: treated separately
Procedure: as §1

[30] = biological target: UniProt Q46802; conditions: peptide sequence: GAFTGASANGK; direction: stabilized; replicate design: treated separately
Procedure: as §1

[31] = biological target: UniProt Q46927; conditions: peptide sequence: AALIAYCR; direction: stabilized; replicate design: treated separately
Chain of UniProt Q46927 (Q46927 whole entry): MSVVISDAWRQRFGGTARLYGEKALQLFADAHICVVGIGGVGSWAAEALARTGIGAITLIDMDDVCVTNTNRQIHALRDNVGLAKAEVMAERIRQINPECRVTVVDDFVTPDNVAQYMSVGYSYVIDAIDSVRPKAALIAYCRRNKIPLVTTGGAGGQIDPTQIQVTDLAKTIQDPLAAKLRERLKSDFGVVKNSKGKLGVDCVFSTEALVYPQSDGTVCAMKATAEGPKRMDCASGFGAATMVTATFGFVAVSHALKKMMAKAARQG
Procedure: as §1

Nc1ncnc2c1ncn2[C@@H]1O[C@H](COP(=O)(O)OP(=O)(O)OP(=O)(O)O)[C@@H](O)[C@H]1O [adenosine 5'-triphosphate]
Conditions	pEC50 of peptide local stability change
[1]	2.99
[2]	3.1
[3]	2.33
[4]	2.14
[5]	3.07
[6]	3.15
[7]	3.03
[8]	3.83
[9]	3.81
[10]	2.88
[11]	2.4
[12]	3.65
[13]	3.2
[14]	3.78
[15]	2.78
[16]	3.44
[17]	3.18
[18]	3.34
[19]	3.43
[20]	2.48
[21]	3.12
[22]	2.73
[23]	3.26
[24]	3.31
[25]	3.81
[26]	3.2
[27]	3.56
[28]	2.24
[29]	3.9
[30]	3.29
[31]	3.69
